Results from PubChem BioAssay AID330 (DTP/NCI, 2004).
Values joined by “and” are separate entries in the source; they are usually repeats but may differ in a detail not shown here. Identical values can stand only once. Inconclusive results and toxic doses are left out.

System: P388 leukemia ip, CD2F1 mice, survival T/C
Test: NCI In Vivo Anticancer Drug Screen. Data for tumor model P388 Leukemia (intraperitoneal) in CD2F1 (CDF1) mice
Conditions: endpoint: median survival time, higher = longer survival
Method in brief: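 Mice carrying the transplanted tumor received test compound or vehicle. Survival was recorded in each group, and the value is the treated-group measurement divided by that of the vehicle-treated control group.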

[1] = dose: 25.0 mg/kg/injection, schedule: Q01DX009 (ip), vehicle: saline
[2] = dose: 50.0 mg/kg/injection, schedule: Q01DX009 (ip), vehicle: saline
[3] = dose: 100.0 mg/kg/injection, schedule: Q01DX009 (ip), vehicle: saline
[4] = dose: 15.0 mg/kg/injection, schedule: Q01DX005 (ip), vehicle: saline with Tween-80
[5] = dose: 30.0 mg/kg/injection, schedule: Q01DX005 (ip), vehicle: saline with Tween-80
[6] = dose: 240.0 mg/kg/injection, schedule: Q01DX005 (ip), vehicle: saline with Tween-80
[7] = dose: 6.25 mg/kg/injection, schedule: Q01DX009 (ip), vehicle: saline with Tween-80
[8] = dose: 60.0 mg/kg/injection, schedule: Q01DX005 (ip), vehicle: saline with Tween-80
[9] = dose: 120.0 mg/kg/injection, schedule: Q01DX005 (ip), vehicle: saline with Tween-80
[10] = dose: 50.0 mg/kg/injection, schedule: Q01DX005 (ip), vehicle: Klucel (hydroxypropylcellulose) (HPC)
[11] = dose: 100.0 mg/kg/injection, schedule: Q01DX005 (ip), vehicle: Klucel (hydroxypropylcellulose) (HPC)
[12] = dose: 200.0 mg/kg/injection, schedule: Q01DX005 (ip), vehicle: Klucel (hydroxypropylcellulose) (HPC)
[13] = dose: 50.0 mg/kg/injection, schedule: Q01DX009 (ip), vehicle: Klucel (hydroxypropylcellulose) (HPC)
[14] = dose: 100.0 mg/kg/injection, schedule: Q01DX009 (ip), vehicle: Klucel (hydroxypropylcellulose) (HPC)
[15] = dose: 200.0 mg/kg/injection, schedule: Q01DX009 (ip), vehicle: Klucel (hydroxypropylcellulose) (HPC)

In the case of `CC[C@]12CN3CCc4c([nH]c5ccccc45)[C@@](C(=O)OC)(c4cc5c(cc4OC)N(C)[C@H]4[C@@](O)(C(=O)OC)[C@H](OC(C)=O)[C@]6(CC)C=CCN7CC[C@]54[C@@H]76)CC(C3)[C@H]1O2` (some centres undefined), the T/C (dose: 0.05 mg/kg/injection, schedule: Q01DX009 (ip), vehicle: saline) is reported as 101 % of control, the T/C (dose: 0.1 mg/kg/injection, schedule: Q01DX009 (ip), vehicle: saline) is reported as 104 % of control and the T/C (dose: 0.2 mg/kg/injection, schedule: Q01DX009 (ip), vehicle: saline) is reported as 104 % of control. The T/C (dose: 0.4 mg/kg/injection, schedule: Q01DX009 (ip), vehicle: saline) was 103 % of control, the T/C (dose: 0.5 mg/kg/injection, schedule: Q01DX001 (ip), vehicle: water) was 104 % of control and the T/C (dose: 0.75 mg/kg/injection, schedule: Q01DX009 (ip), vehicle: saline) was 114 % of control. For the same compound, the T/C (dose: 0.8 mg/kg/injection, schedule: Q01DX009 (ip), vehicle: saline) was 107 % of control, the T/C (dose: 1.0 mg/kg/injection, schedule: Q01DX001 (ip), vehicle: water) was 95 % of control and the T/C (dose: 1.6 mg/kg/injection, schedule: Q01DX009 (ip), vehicle: saline) was 113 % of control. For the same compound, the T/C (dose: 2.0 mg/kg/injection, schedule: Q01DX001 (ip), vehicle: water) was 108 % of control, the T/C (dose: 3.0 mg/kg/injection, schedule: Q01DX009 (ip), vehicle: saline) was 117 % of control and the T/C (dose: 3.2 mg/kg/injection, schedule: Q01DX009 (ip), vehicle: saline) was 110 % of control. For the same compound, the T/C (dose: 4.0 mg/kg/injection, schedule: Q01DX001 (ip), vehicle: water) was 116 % of control, the T/C (dose: 6.0 mg/kg/injection, schedule: Q01DX009 (ip), vehicle: saline sonified) was 173 % of control and the T/C (dose: 6.0 mg/kg/injection, schedule: Q01DX009 (ip), vehicle: saline) was 156 % of control and 160 % of control. For the same compound, the T/C (dose: 6.4 mg/kg/injection, schedule: Q01DX009 (ip), vehicle: saline) was 120 % of control, the T/C (dose: 8.0 mg/kg/injection, schedule: Q01DX001 (ip), vehicle: water) was 122 % of control and the T/C (dose: 12.0 mg/kg/injection, schedule: Q01DX009 (ip), vehicle: saline sonified) was 121 % of control. The T/C (dose: 12.0 mg/kg/injection, schedule: Q01DX009 (ip), vehicle: saline) was 176 % of control and 220 % of control and the T/C (dose: 24.0 mg/kg/injection, schedule: Q01DX009 (ip), vehicle: saline) was 117 % of control.

`C=COC(=O)C(C)(CC)CC(C)C` (centres undefined) was tested, and the T/C (dose: 50.0 mg/kg/injection, schedule: Q01DX009 (ip), vehicle: other) was 115 % of control and the T/C (dose: 100.0 mg/kg/injection, schedule: Q01DX009 (ip), vehicle: other) was 108 % of control.

In the case of `CC(=O)NNc1cccc(Cl)n1`, the T/C (dose: 100.0 mg/kg/injection, schedule: Q01DX001 (ip), vehicle: Klucel (hydroxypropylcellulose) (HPC)) is reported as 98 % of control, the T/C (dose: 200.0 mg/kg/injection, schedule: Q01DX001 (ip), vehicle: Klucel (hydroxypropylcellulose) (HPC)) is reported as 96 % of control and the T/C (dose: 400.0 mg/kg/injection, schedule: Q01DX001 (ip), vehicle: Klucel (hydroxypropylcellulose) (HPC)) is reported as 97 % of control.

`Cc1ccc(S(=O)(=O)N/N=C/C(C)(c2ccccc2)c2ccccc2)cc1` was tested, and the T/C [1] was 92 % of control, the T/C [2] was 99 % of control and 90 % of control and the T/C [3] was 99 % of control and 94 % of control. For the same compound, the T/C (dose: 200.0 mg/kg/injection, schedule: Q01DX009 (ip), vehicle: saline) was 97 % of control.

For `C[C@]12CC[C@H](OC(=O)/C=C\c3ccc(N(CCCl)CCCl)cc3)CC1CC[C@@H]1C2CC[C@]2(C)NC(=O)CCC12` (some centres undefined), the T/C (dose: 100.0 mg/kg/injection, schedule: Q01DX001 (ip), vehicle: saline with Tween-80) was 100 % of control, the T/C (dose: 200.0 mg/kg/injection, schedule: Q01DX001 (ip), vehicle: saline with Tween-80) was 100 % of control and the T/C (dose: 400.0 mg/kg/injection, schedule: Q01DX001 (ip), vehicle: saline with Tween-80) was 100 % of control.

`O=C(/C=C/c1c(-c2ccccc2)[nH]c2ccccc12)c1ccccc1O` was tested, and the T/C (dose: 7.5 mg/kg/injection, schedule: Q01DX005 (ip), vehicle: saline with Tween-80) was 106 % of control, the T/C [4] was 92 % of control and the T/C [5] was 90 % of control. For the same compound, the T/C [6] was 88 % of control.

In the case of `CCOC1CC2CCCN2O1` (centres undefined), the T/C (dose: 75.0 mg/kg/injection, schedule: Q01DX009 (ip), vehicle: saline) is reported as 103 % of control, the T/C (dose: 150.0 mg/kg/injection, schedule: Q01DX009 (ip), vehicle: saline) is reported as 100 % of control and the T/C (dose: 300.0 mg/kg/injection, schedule: Q01DX009 (ip), vehicle: saline) is reported as 94 % of control.

`CCCOC1=C(N2CC2)C(=O)C(OCCC)=C(N2CC2)C1=O` was tested, and the T/C (dose: 0.89 mg/kg/injection, schedule: Q01DX009 (ip), vehicle: saline with Tween-80) was 106 % of control, the T/C (dose: 3.0 mg/kg/injection, schedule: Q01DX009 (ip), vehicle: saline with Tween-80) was 179 % of control and the T/C (dose: 4.0 mg/kg/injection, schedule: Q01DX009 (ip), vehicle: saline with Tween-80) was 181 % of control. The T/C (dose: 6.0 mg/kg/injection, schedule: Q01DX009 (ip), vehicle: saline with Tween-80) was 186 % of control, the T/C [7] was 190 % of control and the T/C (dose: 9.0 mg/kg/injection, schedule: Q01DX009 (ip), vehicle: saline with Tween-80) was 109 % of control.

In the case of `O=C(Nc1ccc(Cl)cc1)Nc1nnc(COc2ccccc2)o1`, the T/C [4] is reported as 90 % of control, the T/C [5] is reported as 88 % of control and the T/C [8] is reported as 89 % of control and 90 % of control. For the same compound, the T/C [9] was 90 % of control and the T/C [6] was 87 % of control.

`Cc1c2c(c(C)c3c1C(=O)c1cc4c(cc1C3=O)OCO4)OCO2` was tested, and the T/C [8] was 92 % of control, the T/C [9] was 99 % of control and the T/C [6] was 102 % of control.

With `COc1cc(OC)c(NC(=O)N(NC(=O)NNc2ccccc2)c2ccccc2)cc1Cl` the T/C [10] was 100 % of control, the T/C [11] was 100 % of control and the T/C [12] was 95 % of control.

For `COc1ccc(C2c3cc4c(cc3OC(C)(O)C2C)OCO4)c(OC)c1` (centres undefined), the T/C (dose: 60.0 mg/kg/injection, schedule: Q01DX005 (ip), vehicle: Klucel (hydroxypropylcellulose) (HPC)) was 98 % of control, the T/C (dose: 120.0 mg/kg/injection, schedule: Q01DX005 (ip), vehicle: Klucel (hydroxypropylcellulose) (HPC)) was 97 % of control and the T/C (dose: 240.0 mg/kg/injection, schedule: Q01DX005 (ip), vehicle: Klucel (hydroxypropylcellulose) (HPC)) was 100 % of control.

With `Cc1ccc(S(=O)(=O)OC(C#N)c2ccccc2)cc1` (centres undefined) the T/C [13] was 111 % of control, the T/C [14] was 102 % of control and the T/C [15] was 100 % of control. For the same compound, the T/C (dose: 400.0 mg/kg/injection, schedule: Q01DX009 (ip), vehicle: Klucel (hydroxypropylcellulose) (HPC)) was 106 % of control.

With `CN(C)CCC(=O)C(=Cc1cccs1)C(=O)CCN(C)C` the T/C (dose: 60.0 mg/kg/injection, schedule: Q01DX005 (ip), vehicle: saline) was 101 % of control, the T/C (dose: 120.0 mg/kg/injection, schedule: Q01DX005 (ip), vehicle: saline) was 98 % of control and the T/C (dose: 240.0 mg/kg/injection, schedule: Q01DX005 (ip), vehicle: saline) was 106 % of control.

With `CC1(C)OC(=O)NC1c1ccccc1` (centres undefined) the T/C [7] was 100 % of control, the T/C (dose: 12.5 mg/kg/injection, schedule: Q01DX009 (ip), vehicle: saline with Tween-80) was 99 % of control and the T/C (dose: 25.0 mg/kg/injection, schedule: Q01DX009 (ip), vehicle: saline with Tween-80) was 117 % of control.

`CCOC(=O)Nc1cc(NC/C(=N/O)c2ccc(OC)cc2)c([N+](=O)[O-])c(N)n1` was tested, and the T/C (dose: 12.5 mg/kg/injection, schedule: Q01DX005 (ip), vehicle: saline) was 98 % of control, the T/C (dose: 25.0 mg/kg/injection, schedule: Q01DX005 (ip), vehicle: saline) was 94 % of control and the T/C (dose: 50.0 mg/kg/injection, schedule: Q01DX005 (ip), vehicle: saline) was 94 % of control.

In the case of `CCOc1cc(/C=N\NC(=O)C(=O)N/N=C\c2ccc(O)c(OCC)c2)ccc1O`, the T/C [13] is reported as 96 % of control, the T/C [14] is reported as 94 % of control and the T/C [15] is reported as 94 % of control.

With `C#CC(C)(O)C(C)(C)C` (centres undefined) the T/C [1] was 88 % of control, the T/C [2] was 98 % of control and the T/C [3] was 98 % of control.

With `CC1(c2ccccc2)NC(=O)N(Sc2ccccc2)C1=O` (centres undefined) the T/C [10] was 111 % of control, the T/C [11] was 113 % of control and the T/C [12] was 107 % of control.

In the case of `Cc1cccc(C)c1OCc1nnc(SCC(=O)O)n1-c1c(C)cccc1C`, the T/C [10] is reported as 102 % of control, the T/C [11] is reported as 99 % of control and the T/C [12] is reported as 93 % of control.
